Source: patent publication US7507730B2, “Substituted pyrazolo[1,5-a]pyrimidines as potassium channel activators” (Bristol-Myers Squibb Company, priority 2005, dated 2009)

Biological target: Kv1.5 (Homo sapiens, UniProt P22460)
Test: Kv1.5 inhibition assay (IKur inhibitor assay per cited references)
Assay type: cell-based
Settings: for Kv1.5% inhibition / inhibition at 0.3 µM: at 0.3 μM; for IC50: read-out: Kv1.5 IC50
Source text: Assays to determine the degree of activity of a compound as an IKur inhibitor are well known in the art and are described in references such as J. Gen. Physiol. Apr.; 101 (4):513-43, and Br. J. Pharmacol. 1995 May; 115(2):267-74.

Sequence of Kv1.5 (P22460 whole entry): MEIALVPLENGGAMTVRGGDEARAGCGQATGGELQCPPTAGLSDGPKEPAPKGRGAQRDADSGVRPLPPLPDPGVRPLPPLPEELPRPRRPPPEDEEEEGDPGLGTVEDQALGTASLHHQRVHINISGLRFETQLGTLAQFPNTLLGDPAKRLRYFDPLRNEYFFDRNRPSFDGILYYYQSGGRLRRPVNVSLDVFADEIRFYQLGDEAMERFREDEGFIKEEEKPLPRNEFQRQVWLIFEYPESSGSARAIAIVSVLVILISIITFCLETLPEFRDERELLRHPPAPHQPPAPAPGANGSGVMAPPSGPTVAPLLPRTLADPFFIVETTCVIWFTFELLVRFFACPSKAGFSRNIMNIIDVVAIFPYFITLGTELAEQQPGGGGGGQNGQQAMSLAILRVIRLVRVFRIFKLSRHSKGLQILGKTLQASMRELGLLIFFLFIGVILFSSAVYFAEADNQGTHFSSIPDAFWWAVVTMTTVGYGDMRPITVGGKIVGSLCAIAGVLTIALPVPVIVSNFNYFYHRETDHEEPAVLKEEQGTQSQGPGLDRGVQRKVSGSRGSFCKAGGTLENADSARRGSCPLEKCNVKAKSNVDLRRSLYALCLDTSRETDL

SMILES | Kv1.5% inhibition | inhibition at 0.3 µM | other results
CCN(C(=O)C1=C(C)Nc2cc(C)nn2C1c1ccc(Cl)c(Cl)c1)S(=O)(=O)c1c(C)noc1C (single isomer, unassigned) [Example 97 Isomer 1, 7-(3,4-Dichlorophenyl)-N-(3,5-dimethylisoxazol-4-ylsulfonyl)-N-ethyl-2,5-dimethyl-4,7-dihydropyrazolo[1,5-a]pyrimidine-6-carboxamide] | 91% | – | –
CC1=C(C(=O)N(C)S(=O)(=O)c2ccc(Cl)cc2)C(c2ccc(Cl)c(Cl)c2)n2nccc2N1 (racemic) [Example 75, N-(4-Chlorophenylsulfonyl)-7-(3,4-dichlorophenyl)-N,5-dimethyl-4,7-dihydropyrazolo[1,5-a]pyrimidine-6-carboxamide] | – | 89% | –
COc1cccc(S(=O)(=O)C2=C(C)Nc3cc(C(F)(F)F)nn3C2c2ccc(Cl)c(Cl)c2)c1 (single isomer, unassigned) [Example 39 Isomer 2, 7-(3,4-Dichlorophenyl)-6-(3-methoxyphenylsulfonyl)-5-methyl-2-(trifluoromethyl)-4,7-dihydropyrazolo[1,5-a]pyrimidine] | 79.6% | – | –
CC1=C(S(=O)(=O)C2CCCCC2)C(c2ccc(Cl)c(Cl)c2)n2nc(C)cc2N1 (single isomer, unassigned) [Example 10 Isomer 1, 6-(Cyclohexylsulfonyl)-7-(3,4-dichlorophenyl)-2,5-dimethyl-4,7-dihydropyrazolo[1,5-a]pyrimidine] | – | – | IC50: 77 nM
CCN(CC)S(=O)(=O)C1=C(C)Nc2cc(C(F)(F)F)nn2C1c1ccc(Cl)c(Cl)c1 (single isomer, unassigned) [Example 64 Isomer 1, 7-(3,4-Dichlorophenyl)-N,N-diethyl-5-methyl-2-(trifluoromethyl)-4,7-dihydropyrazolo[1,5-a]pyrimidine-6-sulfonamide] | – | 76.2% | –
CC1=C(S(=O)(=O)NC(C)(C)C)C(c2ccc(Cl)cc2)n2nc(C(F)(F)F)cc2N1 (single isomer, unassigned) [Example 57 Isomer 2, N-tert-Butyl-7-(4-chlorophenyl)-5-methyl-2-(trifluoromethyl)-4,7-dihydropyrazolo[1,5-a]pyrimidine-6-sulfonamide] | 36.9% | – | –
COc1cccc(S(=O)(=O)C2=C(C)Nc3cc(C(F)(F)F)nn3C2c2ccc(C)c(F)c2)c1 (single isomer, unassigned) [Example 41 Isomer 1, 7-(3-Fluoro-4-methylphenyl)-6-(3-methoxyphenylsulfonyl)-5-methyl-2-(trifluoromethyl)-4,7-dihydropyrazolo[1,5-a]pyrimidine] | – | 84.4% | –
CC1=C(S(=O)(=O)c2ccc(Cl)cc2)C(c2ccc(C)c(F)c2)n2nc(C(F)(F)F)cc2N1 (single isomer, unassigned) [Example 42 Isomer 2, 6-(4-Chlorophenylsulfonyl)-7-(3-fluoro-4-methylphenyl)-5-methyl-2-(trifluoromethyl)-4,7-dihydropyrazolo[1,5-a]pyrimidine] | 92.9% | – | –
Cc1nc2cc(C(F)(F)F)nn2c(-c2ccc(Cl)c(Cl)c2)c1S(=O)(=O)N(C)c1ccccc1 (racemic) [Example 62, 7-(3,4-Dichlorophenyl)-N,5-dimethyl-N-phenyl-2-(trifluoromethyl)pyrazolo[1,5-a]pyrimidine-6-sulfonamide] | – | 12% | –
Cc1nc2cc(C(F)(F)F)nn2c(-c2ccc(Cl)c(Cl)c2)c1C(=O)N(C)S(=O)(=O)c1ccccc1 (racemic) [Example 92, 7-(3,4-Dichlorophenyl)-N,5-dimethyl-N-(phenylsulfonyl)-2-(trifluoromethyl)pyrazolo[1,5-a]pyrimidine-6-carboxamide] | – | 41% | –
CC1=C(C(=O)N2CCCCS2(=O)=O)C(c2ccc(Cl)c(Cl)c2)n2nc(C)cc2N1 (single isomer, unassigned) [Example 84 Isomer 1] | 19% | – | –
CC1=C(S(=O)(=O)c2ccccc2)C(c2ccc(Cl)c(Cl)c2)n2nc(C)cc2N1 (single isomer, unassigned) [Example 3 Isomer 1, 7-(3,4-Dichlorophenyl)-2,5-dimethyl-6-(phenylsulfonyl)-4,7-dihydropyrazolo[1,5-a]pyrimidine] | – | – | IC50: 41 nM
COc1ccc(S(=O)(=O)C2=C(CO)Nc3cc(C(F)(F)F)nn3C2c2ccc(Cl)cc2)cc1 (single isomer, unassigned) [Example 49 Isomer 2, (7-(4-Chlorophenyl)-6-(4-methoxyphenylsulfonyl)-2-(trifluoromethyl)-4,7-dihydropyrazolo[1,5-a]pyrimidin-5-yl)methanol] | 71.2% | – | –
CC1=C(S(=O)(=O)c2ccccc2)C(c2ccc(Cl)cc2)n2nc(C(F)(F)F)cc2N1 (single isomer, unassigned) [Example 26 Isomer 1, 7-(4-Chlorophenyl)-5-methyl-6-(phenylsulfonyl)-2-(trifluoromethyl)-4,7-dihydropyrazolo[1,5-a]pyrimidine] | – | 85.8% | –
CC1=C(S(=O)(=O)c2ccc(C(F)(F)F)cc2)C(c2ccc(Cl)c(Cl)c2)n2nc(C)cc2N1 (single isomer, unassigned) [Example 9 Isomer 1, 7-(3,4-Dichlorophenyl)-2,5-dimethyl-6-(4-(trifluoromethyl)phenylsulfonyl)-4,7-dihydropyrazolo[1,5-a]pyrimidine] | – | – | IC50: 234 nM
CC1=C(C(=O)N(C)S(=O)(=O)C2CC2)C(c2ccc(Cl)c(Cl)c2)n2nc(C(F)(F)F)cc2N1 (single isomer, unassigned) [Example 98 Isomer 2, N-(Cyclopropylsulfonyl)-7-(3,4-dichlorophenyl)-N,5-dimethyl-2-(trifluoromethyl)-4,7-dihydropyrazolo[1,5-a]pyrimidine-6-carboxamide] | – | – | IC50: 200 nM
CC1=C(S(=O)(=O)NCc2ccccc2)C(c2ccc(Cl)c(Cl)c2)n2nc(C(F)(F)F)cc2N1 (single isomer, unassigned) [Example 56 Isomer 1, N-Benzyl-7-(3,4-dichlorophenyl)-5-methyl-2-(trifluoromethyl)-4,7-dihydropyrazolo[1,5-a]pyrimidine-6-sulfonamide] | – | 50% | –

Continued, in another order:

Kv1.5% inhibition | inhibition at 0.3 µM | SMILES | other results
79.2% | – | COc1ccc(S(=O)(=O)C2=C(C)Nc3cc(C(F)(F)F)nn3C2c2ccc(Cl)cc2)cc1OC (single isomer, unassigned) [Example 51 Isomer 2, 7-(4-Chlorophenyl)-6-(3,4-dimethoxyphenylsulfonyl)-5-methyl-2-(trifluoromethyl)-4,7-dihydropyrazolo[1,5-a]pyrimidine] | –
90.8% | – | CC1=C(S(=O)(=O)c2ccccc2)C(c2ccc(Cl)c(F)c2)n2nc(C)cc2N1 (single isomer, unassigned) [Example 7 Isomer 1, 7-(4-Chloro-3-fluorophenyl)-2,5-dimethyl-6-(phenylsulfonyl)-4,7-dihydropyrazolo[1,5-a]pyrimidine] | –
– | 47.6% | CC1=C(S(=O)(=O)c2ccc(F)cc2)C(c2ccc(Cl)cc2)n2nc(C(F)(F)F)cc2N1 (single isomer, unassigned) [Example 27 Isomer 1, 7-(4-Chlorophenyl)-6-(4-fluorophenylsulfonyl)-5-methyl-2-(trifluoromethyl)-4,7-dihydropyrazolo[1,5-a]pyrimidine] | –
71% | – | CC1=C(C(=O)N(C)S(=O)(=O)c2c(C)noc2C)C(c2ccc(Cl)c(Cl)c2)n2nc(C(F)(F)F)cc2N1 (single isomer, unassigned) [Example 95 Isomer 2, 7-(3,4-Dichlorophenyl)-N-(3,5-dimethylisoxazol-4-ylsulfonyl)-N,5-dimethyl-2-(trifluoromethyl)-4,7-dihydropyrazolo[1,5-a]pyrimidine-6-carboxamide] | –
– | 27.6% | CC1=C(S(=O)(=O)NC2CCCCC2)C(c2ccc(Cl)c(Cl)c2)n2nc(C)cc2N1 (single isomer, unassigned) [Example 38 Isomer 2, N-Cyclohexyl-7-(3,4-dichlorophenyl)-2,5-dimethyl-4,7-dihydropyrazolo[1,5-a]pyrimidine-6-sulfonamide] | –
19.6% | – | COc1ccc(S(=O)(=O)C2=C(CO)Nc3cc(C(F)(F)F)nn3C2c2ccc(Cl)cc2)cc1 (single isomer, unassigned) [Example 49 Isomer 1, (7-(4-Chlorophenyl)-6-(4-methoxyphenylsulfonyl)-2-(trifluoromethyl)-4,7-dihydropyrazolo[1,5-a]pyrimidin-5-yl)methanol] | –
54.7% | – | CC1=C(S(=O)(=O)N2CCCC2)C(c2ccc(Cl)c(Cl)c2)n2nc(C)cc2N1 (single isomer, unassigned) [Example 53 Isomer 2, 7-(3,4-Dichlorophenyl)-2,5-dimethyl-6-(pyrrolidin-1-ylsulfonyl)-4,7-dihydropyrazolo[1,5-a]pyrimidine] | –
– | 40% | CC1=C(C(=O)N(C)S(=O)(=O)c2ccc(Cl)cc2)C(c2ccc(Cl)c(Cl)c2)n2nc(C(F)(F)F)cc2N1 (racemic) [Example 89, N-(4-Chlorophenylsulfonyl)-7-(3,4-dichlorophenyl)-N,5-dimethyl-2-(trifluoromethyl)-4,7-dihydropyrazolo[1,5-a]pyrimidine-6-carboxamide] | –
– | 36.2% | CC1=C(S(=O)(=O)c2ccc(Cl)cc2)C(c2ccc(Cl)c(Cl)c2)n2nc(C(F)(F)F)cc2N1 (single isomer, unassigned) [Example 4 Isomer 2, 6-(4-Chlorophenylsulfonyl)-7-(3,4-dichlorophenyl)-5-methyl-2-(trifluoromethyl)-4,7-dihydropyrazolo[1,5-a]pyrimidine] | –
37% | – | CC1=C(C(=O)N(C)S(=O)(=O)c2ccc(F)cc2)C(c2ccc(Cl)c(Cl)c2)n2nc(C)cc2N1 (single isomer, unassigned) [Example 80 Isomer 1, 7-(3,4-Dichlorophenyl)-N-(4-fluorophenylsulfonyl)-N,2,5-trimethyl-4,7-dihydropyrazolo[1,5-a]pyrimidine-6-carboxamide] | –
32.4% | – | CC1=C(S(=O)(=O)c2ccccc2)C(c2ccc(Cl)c(F)c2)n2nc(C)cc2N1 (single isomer, unassigned) [Example 7 Isomer 2, 7-(4-Chloro-3-fluorophenyl)-2,5-dimethyl-6-(phenylsulfonyl)-4,7-dihydropyrazolo[1,5-a]pyrimidine] | –
